Values of other authors, collected in the CATMoS acute toxicity set (Mansouri et al. 2021).
“And” between values parts separate entries of the source, which are not always exact repeats. Equal entries are not always repeated.

Assay: rat acute oral toxicity
Details: in vivo
In the case of `C/N=C/Nc1ccc(Cl)cc1C`, the LD50 is given as 264 mg/kg.
For `CCc1ccccc1N`, the LD50 is listed as 1260 mg/kg.
In the case of `CC(C)(C)c1cc(CCC(=O)O)ccc1O`, the LD50 is given as 1000 mg/kg.
For `c1ccc(C2CCCCC2)c(OCCC2=NCCN2)c1`, the LD50 is given as 9.2 mg/kg.
For `Cc1cc(=O)nc(C(C)C)[nH]1`, the LD50 is given as 2700 mg/kg.
In the case of `O=C(O)CN(CCO)CCN(CC(=O)O)CC(=O)O`, the LD50 is listed as 10000 mg/kg.
In the case of `Nc1c2c(nc3ccccc13)CCCC2O` (stereo not drawn), the LD50 is given as 176 mg/kg.
For `CCS(=O)CCOP(=O)(OC)OC=C(Cl)Cl` (stereo not drawn), the LD50 is given as 110 mg/kg.
For `CCCCOC(=O)c1ccccc1Nc1cccc(C(F)(F)F)c1`, the LD50 is listed as 510 mg/kg.
In the case of `CC[C@@H](CO)NC(=O)[C@@H]1C=C2c3cccc4c3c(cn4C)C[C@H]2N(C)C1`, the LD50 is listed as 2100 mg/kg.
For `N#Cc1nn(-c2c(Cl)cc(C(F)(F)F)cc2Cl)c(N)c1S(=O)(=O)C(F)(F)F`, the LD50 is given as 184 mg/kg.
In the case of `CCOC(=O)C(SP(=O)(OC)SC)c1ccccc1` (stereo not drawn), the LD50 is given as 250 mg/kg.
In the case of `COc1c(Cl)c(Cl)c2[nH]c(C(F)(F)F)nc2c1Cl`, the LD50 is given as 33 mg/kg.
For `O=C1c2ccccc2S(=O)(=O)N1CCCCNC[C@H]1CCc2ccccc2O1`, the LD50 is given as 324 mg/kg.
For `COc1ccc(OC)c(Cc2cnc3nc(N)nc(N)c3c2C)c1`, the LD50 is listed as 1170 mg/kg.
For `CCCCCCCCCCCCCC[n+]1ccc(C)cc1`, the LD50 is listed as 250 mg/kg.
In the case of `CCCCc1c(OC(=O)c2ccccc2)n(-c2ccccc2)n(-c2ccccc2)c1=O`, the LD50 is listed as 2200 mg/kg.
In the case of `C(=NC1CCCCC1)c1ccccc1`, the LD50 is listed as 3080 mg/kg.
In the case of `c1ccc2cnccc2c1`, the LD50 is given as 360 mg/kg.
In the case of `CN(C)CCCNC1=C2C(=CC=CC2[N+](=O)[O-])N(O)c2ccccc21` (stereo not drawn), the LD50 is listed as 110 mg/kg.
For `O=C(NP(=O)(N1CC1)N1CC1)c1ccccc1`, the LD50 is given as 50 mg/kg.
For `CC(c1ccccc1)c1ccccc1CCl` (stereo not drawn), the LD50 is listed as 4700 mg/kg.
In the case of `CCC(C(O)c1ccc2[nH]c(=O)ccc2c1)N1CCN(c2cccc(Cl)c2)CC1` (stereo not drawn), the LD50 is given as 500 mg/kg.
In the case of `O=C(OCCCOCCCOC(=O)c1ccccc1)c1ccccc1`, the LD50 is listed as 9800 mg/kg.
For `Oc1cc2c3c(c1)c1cc4c(cc1c[n+]3CC2)OCO4`, the LD50 is listed as 90 mg/kg.
For `Cn1c2c(c3ccc(N)cc31)CCCC2`, the LD50 is listed as 705 mg/kg.
In the case of `C=CC=C`, the LD50 is listed as 5480 mg/kg.
In the case of `Nc1ccc2c(c1)[nH]c1ccccc12`, the LD50 is listed as 964 mg/kg.
In the case of `CCCCCCCC/C=C\CCCCCCCC(=O)NCC[N+]1(C)CCN=C1CCCCCCC/C=C\CCCCCCCC` (stereo not drawn), the LD50 is listed as 24400 mg/kg.
For `CCN(CC)C(=S)Sc1nc2ccccc2s1`, the LD50 is given as 6000 mg/kg.
For `CCOP(=S)(OCC)Oc1ccccc1[N+](=O)[O-]`, the LD50 is given as 25 mg/kg.
For `CCC1CC2CC3c4[nH]c5ccc(OC)cc5c4CCN(C2)C13` (stereo not drawn), the LD50 is given as 482 mg/kg.
For `OCCNCC(O)CNCCO`, the LD50 is listed as 7200 mg/kg.
In the case of `Nc1nc(=S)ss1`, the LD50 is listed as 3050 mg/kg.
In the case of `CC(=O)OCC=C(C)C`, the LD50 is listed as 2900 mg/kg.
For `COP(=O)(OC)Oc1ccc([N+](=O)[O-])c(Cl)c1`, the LD50 is given as 10 mg/kg.
In the case of `c1cc2c(cc1C1CCCCC1)c1c3n2CCNC3CCC1` (stereo not drawn), the LD50 is given as 3070 mg/kg.
For `COCCNC(=O)c1nc2c(N)nc(-c3ccccc3)nc2nc1NCCOC`, the LD50 is given as 5010 mg/kg.
In the case of `CCCC[P+](CCCC)(CCCC)CCCC`, the LD50 is listed as 916 mg/kg and 420 mg/kg.
In the case of `C=CCCC(=O)Cl`, the LD50 is listed as 470 mg/kg.
For `CCOP(=S)(OCC)Sc1nc(C)cc(C)n1`, the LD50 is given as 59 mg/kg.
In the case of `C=CC(=O)OC(C)COCC(C)OC(=O)C=C` (stereo not drawn), the LD50 is given as 4600 mg/kg.
For `O=C(OC1CC2CCC(C1)[N+]21CCCC1)C(O)(c1ccccc1)c1ccccc1` (stereo not drawn), the LD50 is listed as 1500 mg/kg.
For `CCCCCCCCCCCCCCCCOC(=O)Cc1ccc(N(CCCl)CCCl)cc1`, the LD50 is listed as 100 mg/kg.
In the case of `CC(=O)c1ccc2c(c1)N(CCCN1CCN(C)CC1)c1ccccc1S2`, the LD50 is given as 650 mg/kg.
In the case of `Cc1ccc(=O)n(-c2ccccc2)c1`, the LD50 is given as 1300 mg/kg.
For `COc1ccc(CCNCC(O)COc2cccc(C)c2)cc1OC` (stereo not drawn), the LD50 is given as 460 mg/kg.
For `CCCCCCCCCCCCCCCCCC(=O)NC(CCC(=O)O)C(=O)O` (stereo not drawn), the LD50 is listed as 3000 mg/kg.
For `COc1cc(C2c3cc4c(cc3C(OC3OC5COC(c6ccccc6)OC5C(O)C3O)C3COC(=O)C23)OCO4)cc(OC)c1O` (stereo not drawn), the LD50 is given as 823 mg/kg.
In the case of `CN(C)CCC=C1c2ccccc2CCc2ccccc21`, the LD50 is given as 320 mg/kg.
In the case of `O=C(O)COc1ccccc1`, the LD50 is listed as 1500 mg/kg.
For `C=CC1OCC2(CO1)COC(C=C)OC2` (stereo not drawn), the LD50 is listed as 3250 mg/kg.
In the case of `COc1ccc(O)c(C(N)=O)c1`, the LD50 is given as 1900 mg/kg.
In the case of `CCOC(=O)[N-]c1c[n+](N2CCOCC2)no1`, the LD50 is given as 1050 mg/kg.
In the case of `COP(=S)(OC)Oc1cnc2ccccc2n1`, the LD50 is given as 900 mg/kg.
For `C[C@H](CCc1ccccc1)NC[C@H](O)c1ccc(O)c(C(N)=O)c1`, the LD50 is given as 1030 mg/kg.
For `O=P(OC=C(Cl)Cl)(OCCCl)OCCCl`, the LD50 is listed as 25 mg/kg.
In the case of `CC(C(=O)O)c1ccc2c(c1)[nH]c1ccc(Cl)cc12` (stereo not drawn), the LD50 is listed as 74 mg/kg.
For `CC(O)CN(C)C` (stereo not drawn), the LD50 is listed as 1740 mg/kg.
For `NC(=O)NC(=O)Cc1ccccc1`, the LD50 is given as 1600 mg/kg.
In the case of `CCCCCCCCCC(=O)OC1(c2ccc(Cl)cc2)CCN(CCCC(=O)c2ccc(F)cc2)CC1`, the LD50 is listed as 1720 mg/kg.
In the case of `CS(=O)(=O)c1ccc2nc(C(F)(F)F)[nH]c2c1`, the LD50 is listed as 69 mg/kg.
For `CCN(CC)c1ccc(N)cc1`, the LD50 is listed as 200 mg/kg.
In the case of `Nc1nnc(C=Cc2ccc([N+](=O)[O-])o2)s1`, the LD50 is given as 1880 mg/kg.
For `CCc1ccc(Oc2ccc(C)cc2CC(=O)O)c(Cl)c1`, the LD50 is listed as 2850 mg/kg.
In the case of `CCOP(=O)(NC(C)=O)SC` (stereo not drawn), the LD50 is given as 500 mg/kg.
In the case of `Clc1ccccc1C(c1ccccc1)(c1ccccc1)n1ccnc1`, the LD50 is given as 708 mg/kg.
In the case of `CCOP(=S)(OCC)SC(C(=O)OCCF)c1ccccc1` (stereo not drawn), the LD50 is given as 5 mg/kg.
For `Oc1ccccc1-c1ccccc1`, the LD50 is listed as 656 mg/kg and 1050 mg/kg.
For `CCOC(=O)C=C(C)OP(=O)(OCC)OCC`, the LD50 is given as 22 mg/kg.
In the case of `CSC`, the LD50 is listed as 3300 mg/kg.
In the case of `CC(=O)Oc1cc(C(C)C)c(OCCN(C)C)cc1C`, the LD50 is listed as 740 mg/kg.
In the case of `CCOP(=S)(OCC)Oc1cc2ccccc2oc1=O`, the LD50 is listed as 13 mg/kg.
